Results reported in patent publication US20250049926A1, “PHARMACEUTICAL COMPOSITIONS COMPRISING MODIFIED BETACYCLODEXTRINS” (priority 2021, published 2025).

Columns and labels:
[1] = Solubility measurement of saturated solutions by HPLC at room temperature (0 h and 24 h); type: physicochemical; details: for solubility at 0 h / solubility at 24 h: thermodynamic from solid
Description: The vial contents are prepared starting with 2.5 mg of the compound of formula (I). The primary excipient is added followed by any further excipient and then the buffered water to a total volume of 500 μL. All components are mixed in a vortex mixer for ca. 5 minutes. If everything is dissolved an additional 2.5 mg of the compound of formula (I) is added and vortexed again for ca. 5 minutes. This is repeated until a saturated solution (suspension) is obtained.
The solubility in vial 1 is measured immediately as described below.
To measure solubility 400 μl of the suspension are taken and placed in a centrifugation device above a 0.2 μm filter. Centrifugation is performed at 14,000 rpm for 10 minutes and if necessary repeated for additional 10 minutes. The filter is removed from the vial and 100 μL is taken and diluted with 400 μL high-performance liquid chromatography (HPLC) diluent solution (see below) or diluted with 900 μL HPLC diluent solution in the event 5 mg or more of the compound of formula (I) was used. The pH of the solution is measured. A further 100 μL of the vial solution is taken and diluted with 400 μL of HPLC diluent solution or diluted with 900 μL HPLC diluent solution in the event 5 mg or more of the compound of formula (I) was used. The assay of the solution versus control stock solution is measured by HPLC and the solubility is calculated as described below. The HPLC diluent solution is 0.1% trifluoroacetic acid (TFA) in acetonitrile (ACN) and water (1:1 v/v).
All solubility tests are performed at room temperature.
The HPLC method for assessing solubility is performed as follows:
The solubility of the compound of formula (I) is calculated according to the following formula:
[formula] • Solubility=solubility of compound of formula (I) (mg/mL) • A=peak area of the compound of the sample tested • a=value of constant “a” in Linear regression equation y=ax+b • b=value of constant “b” in Linear regression equation y=ax+b • n=dilution time • Formulations for stability assessment are prepared as follows: […]

mouse tumor models = assay: Single agent administration in mouse tumor models; type: in vivo
Text: However the compound of formula (I) has low aqueous solubility, leading to the possibility of limited exposure in humans.

[2] = buffered water with excipients, pH 7, aqueous with cosolvent or surfactant or cyclodextrin, CBS 30 mM pH 7.0, NaCl 3 mg/mL, SBE-beta-CD 40 mg/mL, pH exp 7.0

`COc1cc(N2CCNCC2)ccc1Nc1ncc2c(n1)-n1ccc(C(=O)Nc3c(C)cccc3C)c1CC2` [compound of formula (I)] gave a solubility at 0 h ([1]; buffered water with excipients, pH 4, aqueous with cosolvent or surfactant or cyclodextrin, CBS 30 mM pH 4.0, NaCl 6 mg/mL, SBE-beta-CD 40 mg/mL + Propylene glycol 10 mg/mL, pH exp 4.1) of 2420 µg/mL, a solubility at 24 h ([1]; buffered water with excipients, pH 4, aqueous with cosolvent or surfactant or cyclodextrin, CBS 30 mM pH 4.0, NaCl 6 mg/mL, SBE-beta-CD 40 mg/mL + Propylene glycol 10 mg/mL, pH exp 4.2) of 3650 µg/mL and a solubility at 0 h ([1]; buffered water with excipients, pH 4, aqueous with cosolvent or surfactant or cyclodextrin, CBS 30 mM pH 4.0, NaCl 6 mg/mL, SBE-beta-CD 40 mg/mL + Propylene glycol 20 mg/mL, pH exp 4.1) of 2310 µg/mL. The solubility at 24 h ([1]; buffered water with excipients, pH 4, aqueous with cosolvent or surfactant or cyclodextrin, CBS 30 mM pH 4.0, NaCl 6 mg/mL, SBE-beta-CD 40 mg/mL + Propylene glycol 20 mg/mL, pH exp 4.2) was 3440 µg/mL, the solubility at 0 h ([1]; buffered water with excipients, pH 4, aqueous with cosolvent or surfactant or cyclodextrin, CBS 30 mM pH 4.0, NaCl 6 mg/mL, SBE-beta-CD 40 mg/mL + Propylene glycol 30 mg/mL, pH exp 4.1) was 2150 µg/mL and the solubility at 24 h ([1]; buffered water with excipients, pH 4, aqueous with cosolvent or surfactant or cyclodextrin, CBS 30 mM pH 4.0, NaCl 6 mg/mL, SBE-beta-CD 40 mg/mL + Propylene glycol 30 mg/mL, pH exp 4.2) was 3350 µg/mL. The solubility at 0 h ([1]; buffered water with excipients, pH 4, aqueous with cosolvent or surfactant or cyclodextrin, CBS 30 mM pH 4.0, SBE-beta-CD 54 mg/mL + Ethanol 16 mg/mL, pH exp 4.1) was 2490 µg/mL, the solubility at 24 h ([1]; buffered water with excipients, pH 4, aqueous with cosolvent or surfactant or cyclodextrin, CBS 30 mM pH 4.0, SBE-beta-CD 54 mg/mL + Ethanol 16 mg/mL, pH exp 4.3) was 3850 µg/mL and the solubility at 0 h ([1]; buffered water with excipients, pH 4, aqueous with cosolvent or surfactant or cyclodextrin, CBS 30 mM pH 4.0, SBE-beta-CD 54 mg/mL + PEG 300 56 mg/mL, pH exp 4.2) was 2890 µg/mL. The solubility at 24 h ([1]; buffered water with excipients, pH 4, aqueous with cosolvent or surfactant or cyclodextrin, CBS 30 mM pH 4.0, SBE-beta-CD 54 mg/mL + PEG 300 56 mg/mL, pH exp 4.3) was 4030 µg/mL, the solubility at 0 h ([1]; buffered water with excipients, pH 4, aqueous with cosolvent or surfactant or cyclodextrin, CBS 30 mM pH 4.0, SBE-beta-CD 56 mg/mL + PEG 400 22 mg/mL, pH exp 4.2) was 2810 µg/mL and the solubility at 24 h ([1]; buffered water with excipients, pH 4, aqueous with cosolvent or surfactant or cyclodextrin, CBS 30 mM pH 4.0, SBE-beta-CD 56 mg/mL + PEG 400 22 mg/mL, pH exp 4.3) was 4060 µg/mL. The solubility at 0 h ([1]; buffered water with excipients, pH 4, aqueous with cosolvent or surfactant or cyclodextrin, GBS (gluconate) 30 mM pH 4.0, NaCl 3 mg/mL, SBE-beta-CD 40 mg/mL, pH exp 4.1) was 2590 µg/mL, the solubility at 24 h ([1]; buffered water with excipients, pH 4, aqueous with cosolvent or surfactant or cyclodextrin, GBS (gluconate) 30 mM pH 4.0, NaCl 3 mg/mL, SBE-beta-CD 40 mg/mL, pH exp 4.5) was 3940 µg/mL and the solubility at 0 h ([1]; buffered water with excipients, pH 4, aqueous with cosolvent or surfactant or cyclodextrin, LBS (lactate) 30 mM pH 4.0, NaCl 3 mg/mL, SBE-beta-CD 40 mg/mL, pH exp 4.1) was 2690 µg/mL. It also gave a solubility at 24 h ([1]; buffered water with excipients, pH 4, aqueous with cosolvent or surfactant or cyclodextrin, LBS (lactate) 30 mM pH 4.0, NaCl 3 mg/mL, SBE-beta-CD 40 mg/mL, pH exp 4.3) of 3980 µg/mL, a solubility at 24 h ([1]; buffered water with excipients, pH 5.5, aqueous with cosolvent or surfactant or cyclodextrin, CBS 30 mM pH 5.5, NaCl 3 mg/mL, SBE-beta-CD 40 mg/mL, pH exp 5.7) of 3100 µg/mL and a solubility at 0 h [1, 2] of 2230 µg/mL. For the same compound, the solubility at 24 h [1, 2] was 2230 µg/mL, the solubility at 0 h ([1]; buffered water without excipient (saturated solution), pH 4, aqueous buffer, CBS 30 mM pH 4.0, no excipient, pH exp 4.0) was 160 µg/mL and the solubility at 24 h ([1]; buffered water without excipient (saturated solution), pH 4, aqueous buffer, CBS 30 mM pH 4.0, no excipient, pH exp 4.2) was 120 µg/mL. The “effect of buffer on solubility with SBE-beta-CD” value ([1]; citrate acid, acetic acid, gluconic acid, lactic acid and aspartic acid buffer) was “approximately the same”, the “solubility (in words)” value ([1]; other solubilizers at concentrations suitable for intravenous use, including hydroxypropyl beta-cyclodextrin) was “Low solubility” and the “effect of additional excipient on solubility with SBE-beta-CD” value ([1]; saline) was “very small impact on solubility”. The “solubility (in words)” value ([1]; with SBE-beta-CD at concentrations of solubilizer suitable for intravenous use) was “High solubility”, the “solubility (in words)” value ([1]; with SBE-beta-CD, at higher pH) was “lower solubility” and the “solubility (in words)” value ([1]; with SBE-beta-CD, between pH 4 to pH 5.5) was “High solubility”. For the same compound, the tumor response (mouse tumor models) was “regressions (and cures)”.
